Results published in publication PMC11062899, “De novo development of small cyclic peptides that are orally bioavailable” (Nature Chemical Biology, 2023).
“And” between values parts separate entries of the source, which are not always exact repeats. Identical values can stand only once. Like-named read-outs stand apart in the source and are kept apart here.

Assays:
[1] = Metabolic stability in rat liver microsomes (RLMs); settings: for microsomal CLint / half-life: rat, microsomes
[2] = Passive artificial membrane permeability (PAMPA)
porcine pepsin = molecular target: T1, porcine pepsin (Sus scrofa, UniProt P00791); test: Peptide stability in simulated gastric fluid (SGF); format: in vitro ADME
T1 construct: 0.32 g of porcine pepsin (Sigma-Aldrich, P7125) was dissolved under gentle agitation; purchased Sigma-Aldrich P7125
Outline: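 Peptide from a 1 mM DMSO stock was added to fluid pre-warmed at 37 °C. SGF was pH 1.2 NaCl with porcine pepsin (0.32 g per 100 ml), and SIF was pH 6.8 potassium phosphate with porcine pancreatin (1 g per 100 ml). Supernatant peptide was quantified by LC–MS, with residual expressed as T1/T0.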

rat α-thrombin = molecular target: T2, rat α-thrombin (Rattus norvegicus, UniProt P18292); test: Protease inhibition, Ki for rat α-thrombin (fluorogenic substrate Z-Gly-Gly-Arg-AMC); format: biochemical; settings: rat alpha thrombin; for Slope normalized to DMSO (proteolytic substrate cleavage over time): replicates R1-R3
T2 construct: rat α-thrombin (Molecular Innovations) were used at final concentrations of 2 nM and 3 nM; purchased Molecular Innovations
Outline: (§1)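 Ki derived through Cheng–Prusoff from IC50s (four-parameter logistic fit) against activity of peptide-free controls. Product fluorescence was read every 3 min over 30 min at 25 °C, substrate Z-Gly-Gly-Arg-AMC at 50 μM. Enzyme was 2 nM human or 3 nM rat α-thrombin, pH 7.4 buffer.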

human α-thrombin = human α-thrombin (Homo sapiens, UniProt P00734); test: Protease inhibition, Ki for human α-thrombin (fluorogenic substrate Z-Gly-Gly-Arg-AMC); format: biochemical; settings: human alpha thrombin; for Slope normalized to DMSO (proteolytic substrate cleavage over time): replicates R1-R3
Outline: as §1

T1 sequence (P00791 60-385): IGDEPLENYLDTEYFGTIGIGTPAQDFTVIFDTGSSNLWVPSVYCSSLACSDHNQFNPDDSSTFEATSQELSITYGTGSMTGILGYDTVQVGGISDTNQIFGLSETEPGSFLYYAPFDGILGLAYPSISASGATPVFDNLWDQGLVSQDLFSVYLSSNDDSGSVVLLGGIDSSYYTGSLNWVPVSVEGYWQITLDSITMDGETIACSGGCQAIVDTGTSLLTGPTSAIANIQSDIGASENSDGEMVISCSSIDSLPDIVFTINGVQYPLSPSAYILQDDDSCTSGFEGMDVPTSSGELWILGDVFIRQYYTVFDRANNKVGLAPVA

O=C1CSCCC[C@H](NC(=O)c2ccc(Cl)s2)C(=O)N[C@@H](Cc2ccccc2)C(=O)N2CCC[C@@H]2CC(=O)NCCSC1 [compound 37]
TIC value of compound, 0 min, R1 ([1]; rat liver microsomes, 0 min, replicate R1): 9508843 | TIC value of compound, 0 min, R3 ([1]; rat liver microsomes, 0 min, replicate R3): 9444065 | TIC value of compound, 5 min, R1 ([1]; rat liver microsomes, 5 min, replicate R1): 8851267 | TIC value of compound, 5 min, R3 ([1]; rat liver microsomes, 5 min, replicate R3): 7487448 | TIC value of compound, 15 min, R1 ([1]; rat liver microsomes, 15 min, replicate R1): 4635928 | TIC value of compound, 15 min, R3 ([1]; rat liver microsomes, 15 min, replicate R3): 4037534 | TIC value of compound, 30 min, R1 ([1]; rat liver microsomes, 30 min, replicate R1): 2932536 | TIC value of compound, 30 min, R3 ([1]; rat liver microsomes, 30 min, replicate R3): 1896940 | TIC value of compound, 60 min, R1 ([1]; rat liver microsomes, 60 min, replicate R1): 631769 | TIC value of compound, 60 min, R3 ([1]; rat liver microsomes, 60 min, replicate R3): 473870 | microsomal CLint ([1]; CL (ul/min/mg protein), R1, RLM CL, replicate R1, unrounded): 81.1 µL/min/mg | microsomal CLint ([1]; CL (ul/min/mg protein), R2, RLM CL, replicate R2, unrounded): 98 µL/min/mg | microsomal CLint ([1]; CL (ul/min/mg protein), R3, RLM CL, replicate R3, unrounded): 107 µL/min/mg | half-life ([1]; Half Life (min), R1, RLM metabolic stability, replicate R1): 17.1 min | half-life ([1]; Half Life (min), R2, RLM metabolic stability, replicate R2): 14.2 min | half-life ([1]; Half Life (min), R3, RLM metabolic stability, replicate R3): 12.9 min | half-life ([1]; Metabolic stability: Half life T1/2 (min), RLMs, mean and SD, three measurements): 14.7 ± 1.7 min | microsomal CLint ([1]; Metabolic stability: RLM CL (ul/min/mg), RLMs, mean and SD, three measurements): 95 ± 11 µL/min/mg | microsomal CLint ([1]; RLM CL, Average, average of R1-R3): 95.4 µL/min/mg | microsomal CLint ([1]; RLM CL, R1, RLM CL, replicate R1, summary block): 81.1 µL/min/mg | microsomal CLint ([1]; RLM CL, R2, RLM CL, replicate R2, summary block): 98 µL/min/mg | microsomal CLint ([1]; RLM CL, R3, RLM CL, replicate R3, summary block): 107 µL/min/mg | PAMPA permeability: % permeability ([2]; 50 μM, 12–18 h, acceptor concentration relative to equilibrium): 31 ± 10% | Papp at 50 μM ([2]; PAMPA, pH 7.4): 3.47 ×10⁻⁶ cm/s | Permeability% Average ([2]; top well sample vs theoretical equilibrium sample (TIC), average of R1-R3): 30.8% | Permeability% ([2]; top well sample vs theoretical equilibrium sample (TIC), single replicates R1-R3): 38.94% and 34.26% and 19.17% | SGF stability, Residual peptide Average (porcine pepsin; after 8 h vs 0 h (TIC), average of R1-R3): 106.20 | SGF stability, Residual peptide (porcine pepsin; after 8 h vs 0 h (TIC), single replicates R1-R3): 119.66 and 103.22 and 95.72 | remaining at 8 h (porcine pepsin; simulated gi fluid, 8 h, 37 °C, pH 1.2, read-out: Proteolytic stability: SGF (8 h) % remaining): 106 ± 12% | Ki (rat α-thrombin; average of R1-R3, read-out: Ki Average, rat alpha thrombin inhibition): 4.1 nM | Slope normalized to DMSO (proteolytic substrate cleavage over time) (rat α-thrombin; peptide 1.02E-03 uM): 91.4 and 90.1 and 86.3 | Slope normalized to DMSO (proteolytic substrate cleavage over time) (rat α-thrombin; peptide 1.04E+00 uM): 6.1 and 5.3 and 3.6 | Slope normalized to DMSO (proteolytic substrate cleavage over time) (rat α-thrombin; peptide 1.27E-04 uM): 98.4 and 98.1 and 97.2 | Slope normalized to DMSO (proteolytic substrate cleavage over time) (rat α-thrombin; peptide 1.30E-01 uM): 10.0 and 9.6 and 8.5 | Slope normalized to DMSO (proteolytic substrate cleavage over time) (rat α-thrombin; peptide 1.59E-05 uM): 101.7 and 102.0 and 103.9 | Slope normalized to DMSO (proteolytic substrate cleavage over time) (rat α-thrombin; peptide 1.63E-02 uM): 36.7 and 39.2 and 35.6 | Slope normalized to DMSO (proteolytic substrate cleavage over time) (rat α-thrombin; peptide 1.67E+01 uM): 4.9 and 5.5 | Slope normalized to DMSO (proteolytic substrate cleavage over time) (rat α-thrombin; peptide 2.03E-03 uM): 80.6 and 80.8 and 78.9 | Slope normalized to DMSO (proteolytic substrate cleavage over time) (rat α-thrombin; peptide 2.08E+00 uM): 5.5 and 5.7 and 3.5 | Slope normalized to DMSO (proteolytic substrate cleavage over time) (rat α-thrombin; peptide 2.54E-04 uM): 97.2 and 96.7 and 93.7 | Slope normalized to DMSO (proteolytic substrate cleavage over time) (rat α-thrombin; peptide 2.60E-01 uM): 7.6 and 5.4 and 6.9 | Slope normalized to DMSO (proteolytic substrate cleavage over time) (rat α-thrombin; peptide 3.18E-05 uM): 100.1 and 100.5 and 98.3 | Slope normalized to DMSO (proteolytic substrate cleavage over time) (rat α-thrombin; peptide 3.26E-02 uM): 26.4 and 25.2 and 22.3 | Slope normalized to DMSO (proteolytic substrate cleavage over time) (rat α-thrombin; peptide 3.33E+01 uM): 4.6 and 5.2 and 4.1 | Slope normalized to DMSO (proteolytic substrate cleavage over time) (rat α-thrombin; peptide 4.07E-03 uM): 63.4 and 62.5 and 70.6 | Slope normalized to DMSO (proteolytic substrate cleavage over time) (rat α-thrombin; peptide 4.17E+00 uM): 4.9 and 5.8 and -9.8 | Slope normalized to DMSO (proteolytic substrate cleavage over time) (rat α-thrombin; peptide 5.09E-04 uM): 93.0 and 91.4 and 91.1 | Slope normalized to DMSO (proteolytic substrate cleavage over time) (rat α-thrombin; peptide 5.21E-01 uM): 5.7 and 6.4 and 5.0 | Slope normalized to DMSO (proteolytic substrate cleavage over time) (rat α-thrombin; peptide 6.36E-05 uM): 98.0 and 98.8 and 98.4 | Slope normalized to DMSO (proteolytic substrate cleavage over time) (rat α-thrombin; peptide 6.51E-02 uM): 15.4 and 15.1 and 13.7 | Slope normalized to DMSO (proteolytic substrate cleavage over time) (rat α-thrombin; peptide 6.67E+01 uM): 5.1 and 5.7 and 2.7 | Slope normalized to DMSO (proteolytic substrate cleavage over time) (rat α-thrombin; peptide 7.95E-06 uM): 105.0 and 102.5 and 101.4 | Slope normalized to DMSO (proteolytic substrate cleavage over time) (rat α-thrombin; peptide 8.14E-03 uM): 49.4 and 48.0 and 46.0 | Slope normalized to DMSO (proteolytic substrate cleavage over time) (rat α-thrombin; peptide 8.33E+00 uM): 5.4 and 5.3 and 3.8 | IC50 (rat α-thrombin; single replicates R1-R3, read-out: IC50, rat alpha thrombin inhibition): 7.27 nM and 7.19 nM and 7.91 nM | Ki (rat α-thrombin; single replicates R1-R3, read-out: Ki, rat alpha thrombin inhibition): 4.03 nM (2×) and 3.98 nM (2×) and 4.38 nM (2×) | Ki (human α-thrombin; average of R1-R3, read-out: Ki Average, human alpha thrombin inhibition): 20.6 nM | Slope normalized to DMSO (proteolytic substrate cleavage over time) (human α-thrombin; peptide 1.02E-03 uM): 99.8 and 96.2 and 96.4 | Slope normalized to DMSO (proteolytic substrate cleavage over time) (human α-thrombin; peptide 1.04E+00 uM): 4.2 and 21.2 and 8.1 | Slope normalized to DMSO (proteolytic substrate cleavage over time) (human α-thrombin; peptide 1.27E-04 uM): 99.4 and 96.4 and 91.4 | Slope normalized to DMSO (proteolytic substrate cleavage over time) (human α-thrombin; peptide 1.30E-01 uM): 13.4 and 22.3 and 23.1 | Slope normalized to DMSO (proteolytic substrate cleavage over time) (human α-thrombin; peptide 1.59E-05 uM): 98.7 and 104.2 and 99.3 | Slope normalized to DMSO (proteolytic substrate cleavage over time) (human α-thrombin; peptide 1.63E-02 uM): 59.7 and 68.6 and 65.4 | Slope normalized to DMSO (proteolytic substrate cleavage over time) (human α-thrombin; peptide 1.67E+01 uM): 1.8 and 5.4 and -0.5 | Slope normalized to DMSO (proteolytic substrate cleavage over time) (human α-thrombin; peptide 2.03E-03 uM): 99.7 and 85.8 and 91.5 | Slope normalized to DMSO (proteolytic substrate cleavage over time) (human α-thrombin; peptide 2.08E+00 uM): 2.6 and 15.2 and 7.7 | Slope normalized to DMSO (proteolytic substrate cleavage over time) (human α-thrombin; peptide 2.54E-04 uM): 103.4 and 95.2 and 94.0 | Slope normalized to DMSO (proteolytic substrate cleavage over time) (human α-thrombin; peptide 2.60E-01 uM): 9.5 and 17.0 and 11.6 | Slope normalized to DMSO (proteolytic substrate cleavage over time) (human α-thrombin; peptide 3.18E-05 uM): 100.4 and 94.1 and 100.2 | Slope normalized to DMSO (proteolytic substrate cleavage over time) (human α-thrombin; peptide 3.26E-02 uM): 41.8 and 49.6 and 51.1 | Slope normalized to DMSO (proteolytic substrate cleavage over time) (human α-thrombin; peptide 3.33E+01 uM): 1.5 and 2.2 and 1.9 | Slope normalized to DMSO (proteolytic substrate cleavage over time) (human α-thrombin; peptide 4.07E-03 uM): 80.8 and 82.5 and 73.0 | Slope normalized to DMSO (proteolytic substrate cleavage over time) (human α-thrombin; peptide 4.17E+00 uM): -1.2 and 8.8 and 5.3 | Slope normalized to DMSO (proteolytic substrate cleavage over time) (human α-thrombin; peptide 5.09E-04 uM): 101.9 and 94.6 and 97.3 | Slope normalized to DMSO (proteolytic substrate cleavage over time) (human α-thrombin; peptide 5.21E-01 uM): 4.7 and 16.3 and 9.9 | Slope normalized to DMSO (proteolytic substrate cleavage over time) (human α-thrombin; peptide 6.36E-05 uM): 101.6 and 98.2 and 102.0 | Slope normalized to DMSO (proteolytic substrate cleavage over time) (human α-thrombin; peptide 6.51E-02 uM): 27.8 and 39.2 and 31.3 | Slope normalized to DMSO (proteolytic substrate cleavage over time) (human α-thrombin; peptide 6.67E+01 uM): 4.9 and 8.1 and 5.5 | Slope normalized to DMSO (proteolytic substrate cleavage over time) (human α-thrombin; peptide 7.95E-06 uM): 99.9 and 99.1 (2×) | Slope normalized to DMSO (proteolytic substrate cleavage over time) (human α-thrombin; peptide 8.14E-03 uM): 73.2 and 74.4 and 76.4 | Slope normalized to DMSO (proteolytic substrate cleavage over time) (human α-thrombin; peptide 8.33E+00 uM): -0.9 and 2.2 and 1.0 | IC50 (human α-thrombin; single replicates R1-R3, read-out: IC50, human alpha thrombin inhibition): 21.8 nM and 29.6 nM and 28.8 nM | Ki (human α-thrombin; single replicates R1-R3, read-out: Ki, human alpha thrombin inhibition): 16.8 nM (2×) and 22.8 nM (2×) and 22.2 nM (2×)
